Columns and labels:
KRAS G12C = KRAS G12C (Homo sapiens, UniProt P01116, G12C); experiment: Cell Activity Assay: accumulation of GDP-bound KRAS G12C in MIAPaCa-2 cells (Raf-1 RBD capture, MSD readout); type: cell-based; set-up: endogenous in cells; host or cells: MIAPaCa-2; settings: 6 hours, assay limit is 30.00
In short: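 IC50 came from a 4-parameter fit of Ras signal normalized between DMSO and full-inhibition controls. Readout: lysate GTP-Ras bound to immobilized Raf-1 RBD, quantified with pan-Ras antibody and MSD electrochemiluminescence. Lysates derived from MIAPaCa-2 cells treated 6 h with serially diluted compound, 0.3% DMSO.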

[1] = molecular target: T1, GDP-loaded KRAS (1-169) G12C, C51S, C80L, C118S (Homo sapiens, UniProt P01116, C118S/C51S/C80L/G12C); experiment: Mass Spectrometry Reactivity Assay (MSRA): covalent adduct of compound and KRAS G12C, Percent Modification; type: binding; settings: for MSRA (% modification) 5.0 μM 0.017 hr / MSRA (% modification) 5.0 μM 0.25 hr: 5.0 μM compound; for MSRA (% modification) 10 μM 0.50 hr / MSRA (% modification) 10 μM 0.25 hr: 10 μM compound
T1 construct: GDP-loaded KRAS (1-169) G12C, C51S, C80L, C118S
In short: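 Covalent labelling is measured by intact mass: deconvoluted modified and unmodified peak intensities yield percent modification. Compound, usually 5 μM or 10 μM final, reacts at room temperature with 5 μM GDP-bound KRAS G12C (1-169, C51S/C80L/C118S) in Hepes pH 7.5/NaCl/glycerol, sampled at 1, 15, 30, 60 min.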

| Structure (SMILES) | IC50 (KRAS G12C) | MSRA (% modification) 5.0 μM 0.017 hr [1] | MSRA (% modification) 10 μM 0.50 hr [1] | MSRA (% modification) 5.0 μM 0.25 hr [1] | MSRA (% modification) 10 μM 0.25 hr [1] |
| --- | --- | --- | --- | --- | --- |
| C=CS(=O)(=O)N1CCN(c2ncnc3c(Oc4c(Cl)c(C)cc5[nH]ncc45)nccc23)CC1 [Example 04, 8-[(5-chloro-6-methyl-1H-indazol-4-yl)oxy]-4-[4-(ethenylsulfonyl)piperazin-1-yl]pyrido[3,4-d]pyrimidine] | 11.7 µM | – | 25% | – | – |
| C=CC(=O)N1CCN(c2nc(OC[C@@H]3CCOC3)nc3c(Oc4c(Cl)c(F)cc5[nH]ncc45)nccc23)CC1 [Example 05H, 1-(4-{8-[(5-chloro-6-fluoro-1H-indazol-4-yl)oxy]-2-[(3R)-tetrahydrofuran-3-ylmethoxy]pyrido[3,4-d]pyrimidin-4-yl}piperazin-1-yl)prop-2-en-1-one] | 0.414 µM | – | – | 54% | 68% |
| C=CC(=O)N1CCN(c2nc(NCc3ncc[nH]3)nc3c(Oc4c(C)ccc5[nH]ncc45)cccc23)CC1 [Example 20F, 1-(4-{2-[(1H-imidazol-2-ylmethyl)amino]-8-[(5-methyl-1H-indazol-4-yl)oxy]quinazolin-4-yl}piperazin-1-yl)prop-2-en-1-one] | 2.99 µM | – | – | – | 17% |
| C=CC(=O)N1CCN(c2ncnc3c(Oc4c(Cl)ccc5[nH]ncc45)nc(C(F)(F)F)cc23)CC1 [Example 04A] | 2.26 µM | – | 40% | – | – |
| C=CC(=O)N1CCN(c2nc(N(C)CCC(=O)N(C)C)nc3c(Oc4c(C)ccc5[nH]ncc45)cccc23)CC1 [Example 05F, N^3-{4-(4-acryloylpiperazin-1-yl)-8-[(5-methyl-1H-indazol-4-yl)oxy]quinazolin-2-yl}-N,N,N^3-trimethyl-β-alaninamide] | 28.5 µM | – | 22% | – | – |
| C=CC(=O)N1CCN(c2nc(N3CC(N(C)C)C3)nc3c(Oc4c(Cl)c(C)cc5[nH]ncc45)cc(Cl)cc23)CC1 [Example 11E, 1-(4-{6-chloro-8-[(5-chloro-6-methyl-1H-indazol-4-yl)oxy]-2-[3-(dimethylamino)azetidin-1-yl]quinazolin-4-yl}piperazin-1-yl)prop-2-en-1-one] | 3.95 µM | – | 68% | – | – |
| C=CC(=O)N1CCN(c2nc(O[C@@H]3CN(C)C[C@H]3OCC)nc3c(Oc4c(Cl)c(F)cc5[nH]ncc45)nccc23)CC1 [Example 18I, 1-[4-(8-[(5-chloro-6-fluoro-1H-indazol-4-yl)oxy]-2-{[(3R,4R)-4-ethoxy-1-methyl-pyrrolidin-3-yl]oxy}pyrido [3,4-d]pyrimidin-4-yl)piperazin-1-yl]prop-2-en-1-one] | 0.093 µM | 35% | – | – | – |
| C=CC(=O)N1CCN(c2nc(O[C@@H]3CN(C)C[C@H]3C(F)(F)F)nc3c(Oc4c(Cl)c(F)cc5[nH]ncc45)nccc23)CC1 [Example 57I, 1-[4-(8-[(5-chloro-6-fluoro-1H-indazol-4-yl)oxy]-2-{[(3S,4R)-1-methyl-4-(trifluoro-methyl)pyrrolidin-3-yl]oxy}pyrido [3,4-d]pyrimidin-4-yl)piperazin-1-yl]prop-2-en-1-one] | 0.024 µM | 22% | – | – | – |
| C=CC(=O)N1CCN(c2ncnc3c(Oc4c(Cl)ccc5[nH]ncc45)cccc23)C[C@@H]1C [Example 07C, 1-[(2S)-4-{8-[(5-chloro-1H-indazol-4-yl)oxy]quinazolin-4-yl}-2-methylpiperazin-1-yl]prop-2-en-1-one] | 5.67 µM | – | 15% | – | – |
| C=CC(=O)N1CCN(c2nc(OC[C@]3(F)CCCN(C)C3)nc3c(Oc4c(Cl)c(F)cc5[nH]ncc45)nc(Cl)cc23)CC1 [Example 25G, 1-[4-(6-chloro-8-[(5-chloro-6-fluoro-1H-indazol-4-yl)oxy]-2-{[(3S)-3-fluoro-1-methylpiperidin-3-yl]methoxy}pyrido[3,4-d]pyrimidin-4-yl)piperazin-1-yl]prop-2-en-1-one] | 0.009 µM | 73% | – | – | – |
| C=CC(=O)N1CCN(c2ncnc3c(Oc4c(C)c(Cl)cc5[nH]ncc45)nccc23)C[C@H]1C [Example 24A, 1-[(2R)-4-{8-[(6-chloro-5-methyl-1H-indazol-4-yl)oxy]pyrido[3,4-d]pyrimidin-4-yl}-2-methylpiperazin-1-yl]prop-2-en-1-one] | 4.72 µM | – | 20% | – | – |
| C=CC(=O)N1CCN(c2nc(Oc3cccc4c3CCN(C(C)C)C4)nc3c(Oc4c(C)ccc5[nH]ncc45)nccc23)CC1 [Example 30I, 1-[4-(8-[(5-methyl-1H-indazol-4-yl)oxy]-2-{[2-(propan-2-yl)-1,2,3,4-tetrahydro-isoquinolin-5-yl]oxy}pyrido [3,4-d]pyrimidin-4-yl)piperazin-1-yl]prop-2-en-1-one] | 0.03 µM | 45% | – | – | – |
| C=CC(=O)N1CCN(c2nc(NCCN3CCN(C)CC3)nc3c(Oc4c(C)ccc5[nH]ncc45)cccc23)CC1 [Example 19F, 1-[4-(8-[(5-methyl-1H-indazol-4-yl)oxy]-2-{[2-(4-methylpiperazin-1-yl)ethyl]amino}quinazolin-4-yl)piperazin-1-yl]prop-2-en-1-one] | 3.7 µM | – | – | – | 24% |

Further lines, results first:

| IC50 (KRAS G12C) | MSRA (% modification) 5.0 μM 0.017 hr [1] | MSRA (% modification) 10 μM 0.50 hr [1] | MSRA (% modification) 5.0 μM 0.25 hr [1] | MSRA (% modification) 10 μM 0.25 hr [1] | Structure (SMILES) |
| --- | --- | --- | --- | --- | --- |
| 0.007 µM | 83% | – | – | – | [2H]C([2H])([2H])N1C[C@@H](OC)[C@H](Oc2nc(N3CCN(C(=O)C=C)CC3)c3cc(Cl)nc(Oc4c(Cl)c(F)cc5[nH]ncc45)c3n2)C1 [Example 41G, 1-[4-(6-chloro-8-[(5-chloro-6-fluoro-1H-indazol-4-yl)oxy]-2-{[(3R,4R)-4-methoxy-1-(^2H3)methylpyrrolidin-3-yl]oxy}pyrido[3,4-d]pyrimidin-4-yl)piperazin-1-yl]prop-2-en-1-one] |
| 0.195 µM | 35% | – | – | – | C=CC(=O)N1CCN(c2nc(O[C@@H]3CN(C)C[C@@H]3OC)nc3c(Oc4c(Cl)c(F)cc5[nH]ncc45)nc(Cl)cc23)CC1 (racemic) [Example 26G, rac-1-[4-(6-chloro-8-[(5-chloro-6-fluoro-1H-indazol-4-yl)oxy]-2-{[(3R,4S)-4-methoxy-1-methylpyrrolidin-3-yl]oxy}pyrido[3,4-d]pyrimidin-4-yl)piperazin-1-yl]prop-2-en-1-one] |
| 0.262 µM | – | – | – | 80% | C=CC(=O)N1CCN(c2nc(OC[C@H]3CCN(C)C3)nc3c(Oc4c(Cl)c(F)cc5[nH]ncc45)nccc23)CC1 [Example 18E, 1-[4-(8-[(5-chloro-6-fluoro-1H-indazol-4-yl)oxy]-2-{[(3S)-1-methylpyrrolidin-3-yl]methoxy}pyrido[3,4-d]pyrimidin-4-yl)piperazin-1-yl]prop-2-en-1-one] |
| 0.535 µM | – | – | 33% | – | C=CC(=O)N1CCN(c2nc(OCc3cscn3)nc3c(Oc4c(C)ccc5[nH]ncc45)nccc23)CC1 [Example 22F, 1-(4-{8-[(5-methyl-1H-indazol-4-yl)oxy]-2-(1,3-thiazol-4-ylmethoxy)pyrido[3,4-d]pyrimidin-4-yl}piperazin-1-yl)prop-2-en-1-one] |
| 10.6 µM | – | 12% | – | – | C=CC(=O)N1CCN(c2ncnc3c(Oc4c(Cl)c(C)cc5[nH]ncc45)nccc23)C[C@H]1C [Example 21A, 1-[(2R)-4-{8-[(5-chloro-6-methyl-1H-indazol-4-yl)oxy]pyrido[3,4-d]pyrimidin-4-yl}-2-methylpiperazin-1-yl]prop-2-en-1-one] |
| 0.285 µM | – | – | 66% | 77% | C=CC(=O)N1CCN(c2nc(OCc3cccnc3)nc3c(Oc4c(Cl)c(F)cc5[nH]ncc45)nccc23)CC1 [Example 07H, 1-(4-{8-[(5-chloro-6-fluoro-1H-indazol-4-yl)oxy]-2-(pyridin-3-ylmethoxy)pyrido[3,4-d]pyrimidin-4-yl}piperazin-1-yl)prop-2-en-1-one] |
| 6.07 µM | – | 65% | – | 53% | C=CC(=O)N1CCN(c2nc(OC[C@H]3CCC(=O)N3)nc3c(Oc4c(C)ccc5[nH]ncc45)cccc23)CC1 [Example 10F, (5R)-5-[({4-(4-acryloylpiperazin-1-yl)-8-[(5-methyl-1H-indazol-4-yl)oxy]quinazolin-2-yl}oxy)methyl]pyrrolidin-2-one] |
| 0.126 µM | – | – | 81% | – | C=CC(=O)N1CCN(c2nc(OC[C@@]3(F)CCCN(C)C3)nc3c(Oc4c(Cl)c(F)cc5[nH]ncc45)nccc23)CC1 [Example 15I, 1-[4-(8-[(5-chloro-6-fluoro-1H-indazol-4-yl)oxy]-2-{[(3R)-3-fluoro-1-methyl-piperidin-3-yl]methoxy}pyrido [3,4-d]pyrimidin-4-yl)piperazin-1-yl]prop-2-en-1-one] |
| 0.07 µM | 52% | – | – | – | C=CC(=O)N1CCN(c2nc(O[C@@H]3CN(CCOC)C[C@H]3OC)nc3c(Oc4c(Cl)c(F)cc5[nH]ncc45)nccc23)CC1 [Example 18H, 1-[4-(8-[(5-chloro-6-fluoro-1H-indazol-4-yl)oxy]-2-{[(3R,4R)-4-methoxy-1-(2-methoxyethyl)pyrrolidin-3-yl]oxy}pyrido[3,4-d]pyrimidin-4-yl)piperazin-1-yl]prop-2-en-1-one] |

From patent US10662204B2 (PFIZER INC., priority 2018, dated 2020)
